Where two headings read alike, the source gives them in different places.
Biological target: T1, xanthine oxidase (Bos taurus, UniProt P80457)
T1 construct: purchased Sigma Chemical Company, St. Louis, Mo; host or cells: milk (grade III, chromatographically purified)
Test: in vitro xanthine oxidase assay (rate of uric acid formation from xanthine)
Type: biochemical
Experimental: Since uric acid is produced by the oxidation of, first, hypoxanthine to xanthine and, second, of xanthine to uric acid via the enzyme, xanthine oxidase, an inhibitor of xanthine oxidase in vivo would obviously decrease the uric acid concentrations in the blood.
Xanthine oxidase activity was measured at room temperature by the rate of uric acid formation from xanthine substrate. In a total volume of 1 ml., the incubation mixture contained 50 micromoles of potassium phosphate buffer at pH 7.4, 0.05 micromoles of xanthine and 0.01 units of enzyme preparation (chromatographically purified milk xanthine oxidase, grade III, obtained from Sigma Chemical Company, St. Louis, Mo.). The absorbence change at 292 nm was recorded by a Gilford recording spectrophotometer and the uric acid formed was calculated using an extinction coefficient of 12 mM^-1 Cm^-1 at 292 nm.

[1] = milk xanthine oxidase 0.01 units, 0.05 micromoles xanthine in 1 ml, pH 7.4, room temperature, 292 nm, read-out: I50 (concentration of drug which inhibits 50% of the oxidation of xanthine to uric acid by the xanthine oxidase preparation) (converted)

T1 sequence (P80457 whole entry): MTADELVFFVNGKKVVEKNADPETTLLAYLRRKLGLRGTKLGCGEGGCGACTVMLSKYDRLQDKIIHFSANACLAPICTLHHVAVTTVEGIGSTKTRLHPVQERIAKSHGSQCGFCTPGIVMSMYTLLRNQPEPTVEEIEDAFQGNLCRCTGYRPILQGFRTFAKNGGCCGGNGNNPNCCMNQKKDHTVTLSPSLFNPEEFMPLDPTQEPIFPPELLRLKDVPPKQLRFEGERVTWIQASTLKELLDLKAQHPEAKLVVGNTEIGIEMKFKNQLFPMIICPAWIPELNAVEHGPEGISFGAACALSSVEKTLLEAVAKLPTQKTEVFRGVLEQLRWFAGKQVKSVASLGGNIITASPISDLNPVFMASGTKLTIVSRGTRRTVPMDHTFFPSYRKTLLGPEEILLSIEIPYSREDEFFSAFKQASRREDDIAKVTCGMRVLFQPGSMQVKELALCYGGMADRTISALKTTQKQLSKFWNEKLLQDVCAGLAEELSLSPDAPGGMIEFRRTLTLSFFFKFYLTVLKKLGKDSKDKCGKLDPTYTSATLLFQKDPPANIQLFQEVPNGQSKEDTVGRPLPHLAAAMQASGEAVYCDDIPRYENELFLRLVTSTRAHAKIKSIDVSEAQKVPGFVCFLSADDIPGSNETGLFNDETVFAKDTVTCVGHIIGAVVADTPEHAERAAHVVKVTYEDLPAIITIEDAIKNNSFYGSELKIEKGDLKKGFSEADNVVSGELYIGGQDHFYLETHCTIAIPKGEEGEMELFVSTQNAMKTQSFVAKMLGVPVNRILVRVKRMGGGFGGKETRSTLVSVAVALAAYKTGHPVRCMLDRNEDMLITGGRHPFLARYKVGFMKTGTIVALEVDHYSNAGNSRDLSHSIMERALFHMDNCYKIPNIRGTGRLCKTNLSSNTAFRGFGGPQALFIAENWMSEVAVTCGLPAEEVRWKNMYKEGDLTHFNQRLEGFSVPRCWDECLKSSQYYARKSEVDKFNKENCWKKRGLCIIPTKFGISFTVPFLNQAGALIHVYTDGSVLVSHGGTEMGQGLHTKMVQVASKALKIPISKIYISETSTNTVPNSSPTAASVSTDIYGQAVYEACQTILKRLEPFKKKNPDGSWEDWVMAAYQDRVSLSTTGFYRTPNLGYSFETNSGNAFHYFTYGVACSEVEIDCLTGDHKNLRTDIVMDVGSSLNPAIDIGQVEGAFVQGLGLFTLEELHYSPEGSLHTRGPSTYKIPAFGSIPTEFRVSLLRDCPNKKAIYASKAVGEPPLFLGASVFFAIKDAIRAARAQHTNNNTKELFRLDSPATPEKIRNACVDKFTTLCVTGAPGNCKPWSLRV

| Structure (SMILES) | IC50 [1] [nM] | IC50 [nM] |
| --- | --- | --- |
| Nc1c(-c2ccc3c(c2)OCO3)nsc1C(=O)O [3,4-methylenedioxy, 3-(1,3-benzodioxyl-5-yl)-4-amino-5-isothiazolecarboxylic acid] | 492 |  |
| Nc1c(-c2cccs2)nsc1C(=O)O [Ar=2-thienyl, 3-(2-thienyl)-4-amino-5-isothiazolecarboxylic acid] | 3310 |  |
| Nc1c(-c2cccnc2)nsc1C(=O)O [Ar=3-pyridinyl, 3-(3-pyridyl)-4-amino-5-isothiazolecarboxylic acid] | 1490 |  |
| O=C(O)c1snc(-c2cccc(C(F)(F)F)c2)c1F [R=3-CF3, X=F, 3-(3-trifluoromethylphenyl)-4-fluoro-5-isothiazolecarboxylic acid] | 68.7 |  |
| O=C(O)c1snc(-c2cccc(C(F)(F)F)c2)c1I [R=3-CF3, X=I, 3-(3-trifluoromethylphenyl)-4-iodo-5-isothiazolecarboxylic acid] |  | 238 |
| CNc1c(-c2cccc(C(F)(F)F)c2)nsc1C(=O)O [R=3-CF3, X=NHCH3, 3-(3-trifluoromethylphenyl)-4-methylamino-5-isothiazolecarboxylic acid] | 562 |  |
| COc1ccc(-c2nsc(C(=O)O)c2N)cc1C [R=3-CH3, R^1=4-OCH3, 3-(4-methoxy-3-methylphenyl)-4-amino-5-isothiazolecarboxylic acid] | 151 |  |
| Cc1cccc(-c2nsc(C(=O)O)c2N)c1 [R=3-CH3, R^1=H, 3-(3-tolyl)-4-amino-5-isothiazolecarboxylic acid] | 640 |  |
| Nc1c(-c2ccc(Cl)c(Cl)c2)nsc1C(=O)O [R=3-Cl, R^1=4-Cl, 3-(3,4-dichlorophenyl)-4-amino-5-isothiazolecarboxylic acid] | 214 |  |
| O=C(O)c1snc(-c2cccc(Cl)c2)c1Cl [R=3-Cl, X=Cl, 3-(3-chlorophenyl)-4-chloro-5-isothiazolecarboxylic acid] |  | 69.3 |
| O=C(O)c1cc(-c2cccc(Cl)c2)ns1 [R=3-Cl, X=H, 3-(3-chlorophenyl)-5-isothiazolecarboxylic acid] | 334 |  |
| COc1ccc(-c2nsc(C(=O)O)c2N)cc1F [R=3-F, R^1=4-OCH3, 3-(3-fluoro-4-methoxyphenyl)-4-amino-5-isothiazolecarboxylic acid] | 67.1 |  |
| Nc1c(-c2cccc(F)c2)nsc1C(=O)O [R=3-F, R^1=H, 3-(3-fluorophenyl)-4-amino-5-isothiazolecarboxylic acid] | 1260 |  |
| COc1ccc(-c2nsc(C(=O)O)c2N)cc1OC [R=3-OCH3, R^1=4-OCH3, 3-(3,4-dimethoxyphenyl)-4-amino-5-isothiazolecarboxylic acid] | 410 |  |
| COc1cc(OC)cc(-c2nsc(C(=O)O)c2N)c1 [R=3-OCH3, R^1=5-OCH3, 3-(3,5-dimethoxyphenyl)-4-amino-5-isothiazolecarboxylic acid] | 89.2 |  |
| COc1cccc(-c2nsc(C(=O)O)c2N)c1 [R=3-OCH3, R^1=H, 3-(3-methoxyphenyl)-4-amino-5-isothiazolecarboxylic acid] | 1160 |  |
| COc1cccc(-c2cc(C(=O)O)sn2)c1 [R=3-OCH3, X=H, 3-(3-anisyl)-5-isothiazolecarboxylic acid] | 3740 |  |
| COc1cccc(-c2nsc(C(=O)O)c2I)c1 [R=3-OCH3, X=I, 3-(3-anisyl)-4-iodo-5-isothiazolecarboxylic acid] | 1720 |  |
| Nc1c(-c2ccc(Br)cc2)nsc1C(=O)O [R=4-Br, R^1=H, 3-(4-bromophenyl)-4-amino-5-isothiazolecarboxylic acid] | 2760 |  |
| Nc1c(-c2ccc(C(F)(F)F)cc2)nsc1C(=O)O [R=4-CF3, R^1=H, 3-(4-trifluoromethylphenyl)-4-amino-5-isothiazolecarboxylic acid] | 624 |  |
| Cc1ccc(-c2nsc(C(=O)O)c2N)cc1 [R=4-CH3, R^1=H, 3-(p-tolyl)-4-amino-5-isothiazolecarboxylic acid] | 1200 |  |
| O=C(O)c1snc(-c2ccc(Cl)cc2)c1Br [R=4-Cl, X=Br, 3-(4-chlorophenyl)-4-bromo-5-isothiazolecarboxylic acid] |  | 314 |
| O=C(O)c1cc(-c2ccc(Cl)cc2)ns1 [R=4-Cl, X=H, 3-(4-chlorophenyl)-5-isothiazolecarboxylic acid] | 1960 |  |
| Nc1c(-c2ccc(F)cc2)nsc1C(=O)O [R=4-F, R^1=H, 3-(4-fluorophenyl)-4-amino-5-isothiazolecarboxylic acid] | 1600 |  |
| CCOc1ccc(-c2nsc(C(=O)O)c2N)cc1 [R=4-OC2 H5, R^1=H, 3-(4-ethoxyphenyl)-4-amino-5-isothiazolecarboxylic acid] | 106 |  |
| CCCOc1ccc(-c2nsc(C(=O)O)c2N)cc1 [R=4-OC3 H7, R^1=H, 3-(4-propoxyphenyl)-4-amino-5-isothiazolecarboxylic acid] | 86.2 |  |
| COc1ccc(-c2nsc(C(=O)O)c2N)cc1 [R=4-OCH3, R^1=H, 4-amino-3-(4-methoxyphenyl)-5-isothiazolecarboxylic acid] | 559 |  |
| COc1ccc(-c2cc(C(=O)O)sn2)cc1 [R=4-OCH3, X=H, 3-(4-anisyl)-5-isothiazolecarboxylic acid] | 276 |  |
| CC(C)Oc1ccc(-c2nsc(C(=O)O)c2N)cc1 [R=4-OCH(CH3)2, R^1=H, 3-(4-isopropoxyphenyl)-4-amino-5-isothiazolecarboxylic acid] | 68.3 |  |

More lines, main results first:

| IC50 [1] [nM] | Structure (SMILES) | IC50 [nM] |
| --- | --- | --- |
| 134 | Cc1cccc(-c2nsc(C(=O)O)c2Cl)c1 [R=3-CH3, X=Cl, 3-(3-tolyl)-4-chloro-5-isothiazolecarboxylic acid] |  |
| 267 | Nc1c(-c2cccc(Cl)c2)nsc1C(=O)O [R=3-Cl, R^1=H, 3-(3-chlorophenyl)-4-amino-5-isothiazolecarboxylic acid] |  |
| 81.6 | O=C(O)c1snc(-c2cccc(Cl)c2)c1Br [R=3-Cl, X=Br, 3-(3-chlorophenyl)-4-bromo-5-isothiazolecarboxylic acid] |  |
| 903 | O=C(O)c1snc(-c2cccc(Cl)c2)c1I [R=3-Cl, X=I, 3-(3-chlorophenyl)-4-iodo-5-isothiazolecarboxylic acid] |  |
| 116 | O=C(O)c1snc(-c2cccc(F)c2)c1Cl [R=3-F, X=Cl, 3-(3-fluorophenyl)-4-chloro-5-isothiazolecarboxylic acid] |  |
| 108 | COc1cccc(-c2nsc(C(=O)O)c2Cl)c1 [R=3-OCH3, X=Cl, 3-(3-anisyl)-4-chloro-5-isothiazolecarboxylic acid] |  |
| 315 | Cc1ccc(-c2nsc(C(=O)O)c2Cl)cc1 [R=4-CH3, X=Cl, 3-(4-tolyl)-4-chloro-5-isothiazolecarboxylic acid] |  |
| 2750 | Nc1c(-c2ccc(Cl)cc2)nsc1C(=O)O [R=4-Cl, R^1=H, 3-(4-chlorophenyl)-4-amino-5-isothiazolecarboxylic acid] |  |
| 365 | O=C(O)c1snc(-c2ccc(Cl)cc2)c1Cl [R=4-Cl, X=Cl, 3-(4-chlorophenyl)-4-chloro-5-isothiazolecarboxylic acid] |  |
| 2740 | O=C(O)c1snc(-c2ccc(Cl)cc2)c1I [R=4-Cl, X=I, 3-(4-chlorophenyl)-4-iodo-5-isothiazolecarboxylic acid] |  |
| 202 | O=C(O)c1snc(-c2ccc(F)cc2)c1Cl [R=4-F, X=Cl, 3-(4-fluorophenyl)-4-chloro-5-isothiazolecarboxylic acid] |  |
| 51.9 | COc1ccc(-c2nsc(C(=O)O)c2Cl)cc1 [R=4-OCH3, X=Cl, 3-(4-anisyl)-4-chloro-5-isothiazolecarboxylic acid] |  |
| 2130 | Nc1c(-c2ccccc2)nsc1C(=O)O [R=H, R^1=H, 3-phenyl-4-amino-5-isothiazolecarboxylic acid] |  |
| 225 | O=C(O)c1snc(-c2ccccc2)c1Cl [R=H, X=Cl, 3-phenyl-4-chloro-5-isothiazolecarboxylic acid] |  |
| 2340 | O=C(O)c1cc(-c2ccccc2)ns1 [R=H, X=H, 3-phenyl-5-isothiazolecarboxylic acid] |  |
| 203 | O=C(O)c1snc(-c2ccccc2)c1O [R=H, X=OH, 3-phenyl-4-hydroxy-5-isothiazolecarboxylic acid] |  |

Reference: patent US4346094A, “3-Aryl-5-isothiazolecarboxylic acids and related compounds used to lower uric acid levels” (Eli Lilly and Company, priority 1980, dated 1982)
